Series [1] concerns the target T1, Steroid 17-alpha-hydroxylase/17,20 lyase (Homo sapiens, UniProt P05093).
T1 sequence (P05093 whole entry): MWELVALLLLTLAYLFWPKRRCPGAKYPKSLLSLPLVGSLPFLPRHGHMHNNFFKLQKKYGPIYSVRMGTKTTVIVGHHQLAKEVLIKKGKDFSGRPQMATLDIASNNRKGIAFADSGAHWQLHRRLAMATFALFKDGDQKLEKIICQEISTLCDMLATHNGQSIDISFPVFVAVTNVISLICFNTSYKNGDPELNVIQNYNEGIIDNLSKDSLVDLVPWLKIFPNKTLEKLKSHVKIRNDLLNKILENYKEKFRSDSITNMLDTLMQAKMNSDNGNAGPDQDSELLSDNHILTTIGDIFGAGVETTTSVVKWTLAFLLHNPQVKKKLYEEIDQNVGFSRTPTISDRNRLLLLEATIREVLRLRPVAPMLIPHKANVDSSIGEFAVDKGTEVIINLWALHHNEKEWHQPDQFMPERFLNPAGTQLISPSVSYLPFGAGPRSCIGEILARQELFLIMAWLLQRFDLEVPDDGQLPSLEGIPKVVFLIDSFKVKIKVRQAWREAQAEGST
The experiment in a line: Inhibition of CYP17 in human testicular microsomes using 17alpha-hydroxypregnenolone as substrate assessed as decrease in DHEA levels after 90 mins by ELISA. Also noted: species or system Testis.

Series [2] deals with T1, Steroid 17-alpha-hydroxylase/17,20 lyase. The experiment in a line: Inhibition of CYP17 in human testicular microsomes using 17alpha-hydroxypregnenolone as substrate assessed as decrease in DHEA levels at 10 nM after 90 mins by ELISA relative to control. Also noted: species or system Testis. As to conditions: 1.5 h.
The nature of series [3]: Half life in rat liver microsomes at 1 uM by LC-MS/MS analysis.
Series [4] in a line: Half life in human liver microsomes at 1 uM by LC-MS/MS analysis.
Series [5] concerns the target T1, Steroid 17-alpha-hydroxylase/17,20 lyase. The experiment in a line: Inhibition of CYP17 in human H295R cells assessed as decrease in testosterone levels after 24 hrs by ELISA. It is filed as cell-based.
For series [6], the target named is T2, CYP21 (steroid 21-hydroxylase) (Homo sapiens, UniProt P08686).
T2 sequence (P08686 whole entry): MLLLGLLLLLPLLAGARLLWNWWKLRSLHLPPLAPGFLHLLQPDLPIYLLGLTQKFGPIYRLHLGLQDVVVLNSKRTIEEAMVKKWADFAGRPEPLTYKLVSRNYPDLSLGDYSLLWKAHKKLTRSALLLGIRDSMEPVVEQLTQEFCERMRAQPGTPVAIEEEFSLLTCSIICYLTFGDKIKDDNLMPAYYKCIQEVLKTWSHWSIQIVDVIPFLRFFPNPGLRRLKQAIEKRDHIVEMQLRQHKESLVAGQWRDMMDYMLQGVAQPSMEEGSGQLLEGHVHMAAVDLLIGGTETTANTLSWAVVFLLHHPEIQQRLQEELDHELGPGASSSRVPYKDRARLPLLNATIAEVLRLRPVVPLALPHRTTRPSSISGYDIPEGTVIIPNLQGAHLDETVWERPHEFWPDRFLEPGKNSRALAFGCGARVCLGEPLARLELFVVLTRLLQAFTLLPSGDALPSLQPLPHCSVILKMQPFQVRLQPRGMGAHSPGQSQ
In words: Inhibition of human CYP21 transfected in HEK293 cells assessed as decrease in conversion of progesterone to 11-deoxycorticosterone preincubated for 5 hrs followed by progesterone addition measured after 20 hrs by ELISA. Type of series: cell-based. Set-up: concentration or dose not given beside the values. As to conditions: HEK293 cells transfected with human CYP21, probe progesterone.

`C[C@]12CCNC(=O)C[C@@H]1CC[C@@H]1[C@@H]2CC[C@]2(C)C(n3ccnc3)=CC[C@@H]12`: in series [1], the IC50 was ≤ 11 nM. Further, the inhibition at 0.01 µM in series [2] was ≥ 80%. In addition, the values for the half-life at 1 µM in series [3] and in series [4] were 10 to 60 min and ≥ 50 min, respectively.
With `Cc1cncc(C2=CC[C@H]3[C@@H]4CCN5C(=O)CCCC[C@]5(C)[C@H]4CC[C@]23C)c1`, the IC50 in series [1] is ≤ 11 nM. Besides, the inhibition at 0.01 µM in series [2] lay in the range of 50 to 80%. In addition, the half-life at 1 µM in series [3] and in series [4] was 1 to 10 min in each case.
Regarding `Cc1ccncc1C1=CC=C2[C@@H]3CC=C4C[C@@H](O)CC[C@]4(C)[C@H]3CC[C@]12C`, in series [5], the IC50 fell in the range of 15 to 100 nM. Moreover, the half-life at 1 µM in series [4] is 1 to 50 min. Further, the inhibition at 20 h in series [6] is ≥ 50%.
As to `CN1C(=O)COC[C@@]2(C)C1CC[C@@H]1[C@@H]2CC[C@]2(C)C(c3cccnc3)=CC[C@@H]12` (stereo partly drawn), the IC50 in series [1] is ≤ 11 nM. Further, the inhibition at 0.01 µM in series [2] lay in the range of 50 to 80%. The half-life at 1 µM in series [3] and in series [4] was 1 to 10 min throughout.
Regarding `CN(C)CC(=O)O[C@H]1CC[C@@]2(C)C(=CC[C@H]3C4=CC=C(c5cccnc5)[C@@]4(C)CC[C@@H]32)C1`, the IC50 in series [5] is 15 to 100 nM. The inhibition at 20 h in series [6] was ≥ 50%.
In the case of `C[C@]12CCNC(=O)C=C1CC[C@@H]1[C@@H]2CC[C@]2(C)C(n3ccnc3)CC[C@@H]12` (stereo partly drawn), the IC50 in series [1] was ≤ 11 nM. For the same compound, the inhibition at 0.01 µM in series [2] is ≥ 80%. Besides, the values for the half-life at 1 µM in series [3] and in series [4] were 10 to 60 min and ≥ 50 min, respectively.
In the case of `C[C@]12CC[C@H]3[C@@H](CC4CC45C[C@@H](O)CC[C@]35C)[C@@H]1CC=C2c1cccnc1` (stereo partly drawn), the results for the IC50 in series [1] and in series [5] were ≤ 11 nM and ≤ 15 nM, respectively. The compound further displayed a half-life at 1 µM in series [4] of 1 to 50 min. Besides, the inhibition at 20 h in series [6] is ≥ 50%.
On to `C[C@]12CCCCC[C@@H]1CC[C@@H]1[C@@H]2CC[C@]2(C)C(n3ccnc3)=CC[C@@H]12`, for which, in series [1], the IC50 is ≤ 11 nM. In series [2], the inhibition at 0.01 µM fell in the range of 50 to 80%. For the same compound, the half-life at 1 µM in series [3] and in series [4] was 10 to 60 min each time.
As for `C[C@]12CC[C@H]3[C@@H](CCC45CC4C(O)CC[C@]35C)[C@@H]1CC=C2c1cccnc1` (stereo partly drawn), the IC50 is ≤ 11 nM in series [1] and ≤ 15 nM in series [5]. Further, the inhibition at 20 h in series [6] was ≥ 50%.
`Cc1cn(C2=CC[C@H]3[C@@H]4CCC5=CC(=O)NCC[C@]5(C)[C@H]4CC[C@]23C)cn1`: in series [1], the IC50 is ≤ 11 nM. In series [2], the inhibition at 0.01 µM fell in the range of 50 to 80%. Besides, the half-life at 1 µM in series [3] and in series [4] was 10 to 60 min in each case.
For `C[C@]12CCOCC[C@@H]1CC[C@@H]1[C@@H]2CC[C@]2(C)C(c3cccnc3)=CC[C@@H]12`, in series [1], the IC50 is ≤ 11 nM. In addition, the inhibition at 0.01 µM in series [2] is ≥ 80%. For the same compound, the half-life at 1 µM in series [3] and in series [4] was 1 to 10 min throughout.
As to `CC1C(O)CC[C@@]2(C)C1CC[C@@H]1[C@@H]2CC[C@]2(C)C(c3cccnc3)=CC[C@@H]12` (stereo partly drawn), the values for the IC50 in series [1] and in series [5] were ≤ 11 nM and ≤ 15 nM, respectively. Further, the inhibition at 20 h in series [6] fell in the range of 10 to 50%.
On to `C[C@]12CC[C@H]3[C@@H](CC=C4C[C@@H](O)CC[C@@]43C)C1=CC=C2c1cncc(C(F)F)c1`, for which the IC50 in series [5] was 15 to 100 nM. The inhibition at 20 h in series [6] is < 10%.
For `Cc1cncc(C2=CC[C@H]3[C@@H]4CC[C@H]5COCCC[C@]5(C)[C@H]4CC[C@]23C)c1`, the IC50 in series [1] was ≤ 11 nM. Also, the inhibition at 0.01 µM in series [2] lay within 50 to 80%. In addition, the half-life at 1 µM in series [3] and in series [4] was 1 to 10 min throughout.
As for `C[C@]12CCNC(=O)C=C1CC[C@@H]1[C@@H]2CC[C@]2(C)C(c3cncc(C(F)F)c3)=CC[C@@H]12`, the IC50 in series [1] is ≤ 11 nM; in series [5] it was ≤ 15 nM. This compound registered a half-life at 1 µM in series [4] of 1 to 50 min. In series [6], the inhibition at 20 h was ≥ 50%.
With `C[C@@]1(O)CC[C@@]2(C)C(CC[C@@H]3[C@@H]2CC[C@]2(C)C(c4cncc(F)c4)=CC[C@@H]32)C1` (stereo partly drawn), the IC50 is ≤ 11 nM in series [1] and ≤ 15 nM in series [5]. The compound further had a half-life at 1 µM in series [4] of 1 to 50 min.
As for `C[C@]12CC(O)CC1CC[C@@H]1[C@@H]2CC[C@]2(C)C(c3cncc(F)c3)=CC[C@@H]12` (stereo partly drawn), the IC50 in series [1] is ≤ 11 nM; in series [5] it was ≤ 15 nM. In series [4], the half-life at 1 µM is ≥ 50 min. For the same compound, the inhibition at 20 h in series [6] is 10 to 50%.
Consider `COc1cncc(C2=CC[C@H]3[C@@H]4CCN5C(=O)CCCC[C@]5(C)[C@H]4CC[C@]23C)c1`, for which the IC50 in series [1] was ≤ 11 nM. Besides, in series [2], the inhibition at 0.01 µM was ≥ 80%. For the same compound, the half-life at 1 µM in series [3] and in series [4] was 1 to 10 min throughout.
With `C[C@]12CCC(F)CC1=CC[C@@H]1[C@@H]2CC[C@]2(C)C(c3cncc(F)c3)=CC[C@@H]12` (stereo partly drawn), the IC50 is ≤ 11 nM in series [1] and ≤ 15 nM in series [5]. The half-life at 1 µM in series [4] was ≥ 50 min.
For `C[C@]12CC(=O)C[C@@H]1CC[C@@H]1[C@@H]2CC[C@]2(C)C(n3ccnc3)=CC[C@@H]12`, the IC50 in series [1] is ≤ 11 nM. Further, the inhibition at 0.01 µM in series [2] was ≥ 80%. For the same compound, the half-life at 1 µM in series [3] is 1 to 10 min; in series [4], ≥ 50 min.
`CC(=O)N[C@@H]1CC[C@@]2(C)C(=CC[C@H]3C4=CC=C(c5cccnc5)[C@@]4(C)CC[C@@H]32)C1`: the IC50 in series [5] was ≤ 15 nM. The same compound yielded a half-life at 1 µM in series [4] of 1 to 50 min. Also, the inhibition at 20 h in series [6] was ≥ 50%.
`CCc1cncc(C2=CC[C@H]3[C@@H]4CCN5C(=O)CCCC[C@]5(C)[C@H]4CC[C@]23C)c1`: the IC50 in series [1] is ≤ 11 nM. The inhibition at 0.01 µM in series [2] was ≥ 80%. The half-life at 1 µM in series [3] and in series [4] was 1 to 10 min in each case.
In the case of `COc1cncc(C2=CC[C@H]3[C@@H]4CC[C@H]5CCOCC[C@]5(C)[C@H]4CC[C@]23C)c1`, in series [1], the IC50 is ≤ 11 nM. Besides, in series [2], the inhibition at 0.01 µM lay in the range of 50 to 80%. Further, the half-life at 1 µM in series [3] and in series [4] was 1 to 10 min in each case.
Take `CCOc1cncc(C2=CC[C@H]3[C@@H]4CC[C@H]5COCCC[C@]5(C)[C@H]4CC[C@]23C)c1`: the IC50 in series [1] is ≤ 11 nM. Further, the inhibition at 0.01 µM in series [2] lay within 50 to 80%. Further, the half-life at 1 µM in series [3] and in series [4] was 1 to 10 min each time.
On to `C[C@]12CCC(=O)C=C1C1CC1[C@@H]1[C@@H]2CC[C@]2(C)C(c3cncc(F)c3)=CC[C@@H]12` (stereo partly drawn), for which the IC50 in series [1] is ≤ 11 nM; in series [5], ≤ 15 nM. In series [4], the half-life at 1 µM was in the range of 1 to 50 min. Moreover, in series [6], the inhibition at 20 h is ≥ 50%.
Take `CC(C)C(=O)N[C@H]1CC[C@@]2(C)C(CC[C@@H]3[C@@H]2CC[C@]2(C)C(c4cccnc4)=CC[C@@H]32)C1` (stereo partly drawn): the IC50 in series [5] was ≤ 15 nM. Besides, the half-life at 1 µM in series [4] was 1 to 50 min. Moreover, the inhibition at 20 h in series [6] was ≥ 50%.
As to `C[C@]12CC[C@H](O)CC1=CC[C@@H]1[C@@H]2CC[C@]2(C)C(c3cncc(C(F)F)c3)=CC[C@@H]12`, the IC50 in series [1] was ≤ 11 nM; in series [5] it was ≤ 15 nM. For the same compound, the half-life at 1 µM in series [4] is ≥ 50 min. For the same compound, in series [6], the inhibition at 20 h was ≥ 50%.
`COc1cncc(C2=CC[C@H]3[C@@H]4CC[C@H]5COCCC[C@]5(C)[C@H]4CC[C@]23C)c1`: the IC50 in series [1] is ≤ 11 nM. Moreover, the inhibition at 0.01 µM in series [2] lay within 50 to 80%. Also, the half-life at 1 µM in series [3] and in series [4] was 1 to 10 min in each case.
As to `CC1=C2CC[C@@H]3[C@H](CC[C@]4(C)C(c5cccnc5)=CC[C@@H]34)[C@@]2(C)CCC1=O`, the IC50 in series [1] is ≤ 11 nM; in series [5], ≤ 15 nM. Further, the inhibition at 20 h in series [6] is ≥ 50%.
Consider `C[C@]12CCCOCC1CCC1C2CC[C@]2(C)C(c3cccnc3)=CC[C@@H]12` (single isomer, unassigned), for which the IC50 in series [1] was ≤ 11 nM. The inhibition at 0.01 µM in series [2] is ≥ 80%. The half-life at 1 µM in series [3] and in series [4] was 1 to 10 min in each case.
